# Where “and” joins values, the source holds several entries; their conditions need not be identical. Equal values may be shown once. Read-outs that look alike come from different tables or passages of the source.
# Target: T1, human GPR61 (Homo sapiens, UniProt Q9BZJ8)
# T1 construct: expressed in transfected cells; host or cells: CHO-K1, transient (Fugene6)
# Assay: Functional cAMP assay (HTRF), transiently transfected CHO-K1 cells, wild-type GPR61 (untagged and HiBit-tagged)
# Assay type: cell-based
# Set-up: key to cAMP response (Figure 3e source data): nM cAMP per well, from standard curve
# Excerpt: The human GPR61 (reference sequence NM_031936.4) cDNA was synthesized and subcloned into pcDNA5/FRT/TO (Thermo Fisher, Pittsburgh, PA). The pcDNA5/FRT/TO/ human GPR61 plasmid was then transfected into the Flp-In™-CHO Cell Line (Thermo Fisher, Pittsburgh, PA) and a doxycycline-inducible clonal cell line was selected (CHO TREx hGPR61 WT). Sequences encoding untagged and HiBit/hemagglutinin (HA)-tagged versions of the wild-type human GPR61 were synthesized and cloned into pcDNA3.1. The HiBit ([…]) and HA ([…]) tags were sequentially included after the N-terminal initiator methionine. Four single amino acid substitutions (N137A, R140A, V288A, N345A) were then introduced in the untagged and tagged human GPR61 constructs using site-specific mutagenesis. The nucleotide sequences of all receptor constructs were confirmed by automated DNA sequencing.
# Parental CHO-K1 cells were maintained at 37 °C in a humidified environment (5% CO2) and grown in Dulbecco’s Modified Eagle Medium (DMEM) F-12 media (Gibco, 11320033) supplemented with 10% FBS, 1% Glutamax (Gibco, 35050061) and 100units/ml penicillin and streptomycin (Gibco, 15140122. Cells were dissociated using a cell dissociation solution (Gibco, 13151-014), counted, and resuspended in complete culture media without antibiotics. Cells were then transiently transfected using Fugene6 (Promega) in a 384-well plate format (Corning, 3570). For each well, 7500 cells were transfected with 5 ng of receptor plasmid, 20 ng of carrier DNA (Promega, PAE4881) and 0.075 μl Fugene6 in a final volume of 25 μl. Fugene6 and DNA were separately diluted in Optimem media (Gibco, 31985070) (1.25 μl final volume each). Fugene6 and DNA solutions were then combined and incubated for 15 min at room temperature. The cell containing solution (22.5 μl) was then added and transfection reactions were mixed and transferred to the assay plate. Following 24 h incubation at 37 °C, wells were rinsed once and 25 μl of HiBit assay buffer (Phenol-red free DMEM F-12 media containing 2% FBS) was added per well. Surface and total receptor expression was measured separately by adding 25 μl per well of the extracellular (Promega, PRN2421) and lytic (Promega, PRN3040) assay solutions, respectively. Plates were incubated for 10 min at room temperature on a shaker and luciferase activity was measured using an EnVision plate reader (Perkin Elmer, Chicago, IL). Expression was normalized as percent of the wild-type receptor signal. Statistical comparisons of expression levels observed with WT versus GPR61 mutants were made by one-way analysis of variance with Dunnett’s post hoc test.
# A homogeneous Time-Resolved Fluorescence (HTRF) assay (Perkin Elmer, Dynamic2 kit #) was used to assess receptor basal and inverse agonist activity at human GPR61, GPR62, and GPR101. For routine inverse agonist screening frozen CHO TREx human GPR61, GPR62 and GPR101 cells were used. Cells were thawed, resuspended in complete assay media (DMEM F-12, 10% HI FBS, 100 μg/mL Normocin, 700 μg/mL Hygromycin B and 15 μg/mL Blasticidin) containing 1ug/ml doxycycline, plated in white 384 well plates (Corning, 3570) at a density of 750 cells/well (25 μl/ well) and cultured at 37 °C in an incubator overnight. For studies assessing basal and inverse agonist activity at human GPR61 mutants, CHO-K1 cells were transiently transfected using Fugene6, plated in white 384 well plates (7500 cells/well) and grown overnight at 37 °C, as described for receptor expression studies. […]
# T1 sequence (Q9BZJ8 whole entry): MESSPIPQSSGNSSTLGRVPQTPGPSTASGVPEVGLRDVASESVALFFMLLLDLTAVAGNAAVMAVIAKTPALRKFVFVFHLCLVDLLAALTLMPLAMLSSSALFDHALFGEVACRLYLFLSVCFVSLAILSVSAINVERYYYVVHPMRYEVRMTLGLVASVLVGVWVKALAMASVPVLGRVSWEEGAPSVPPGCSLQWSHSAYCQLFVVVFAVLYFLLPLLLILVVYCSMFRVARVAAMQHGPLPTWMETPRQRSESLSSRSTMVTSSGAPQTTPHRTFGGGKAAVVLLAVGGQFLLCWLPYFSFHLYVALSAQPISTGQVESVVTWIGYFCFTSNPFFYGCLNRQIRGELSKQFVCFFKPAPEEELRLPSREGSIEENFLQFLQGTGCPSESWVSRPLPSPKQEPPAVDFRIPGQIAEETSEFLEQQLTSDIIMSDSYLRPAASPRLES
compound,measurement,setting,value
CCOc1cc(C)nc(N(CCOC)S(=O)(=O)c2ccc(NCc3c(F)cncc3F)nc2OC)n1 [Compound 1],IC50,"Fig. 2d, HiBit-tagged WT, read-out: IC50, cAMP assay, Hibit-tagged GPR61",10 nM
same,IC50,"Fig. 2d, untagged WT, read-out: IC50, cAMP assay, Untagged GPR61",11 nM
same,cAMP response (Figure 3e source data),"HiBit WT, concentration -7.5",1.38 and 1.77 and 1.31 and 1.26 and 1.43 and 2.44
same,cAMP response (Figure 3e source data),"HiBit WT, concentration -8",2.14 and 2.36 and 1.86 and 2.11 and 3.43
same,cAMP response (Figure 3e source data),"HiBit WT, concentration -10",3.60 and 4.23 and 3.00 and 3.19 and 3.38 and 5.40
same,cAMP response (Figure 3e source data),"Untagged WT, concentration -8.5",3.48 and 4.28 and 2.15 and 2.16 and 4.06 and 4.02
same,cAMP response (Figure 3e source data),"Untagged WT, concentration -9",4.53 and 5.41 and 3.02 and 3.13 and 5.81 and 5.80
same,IC50,"wild-type GPR61, untagged and HiBit-tagged, read-out: IC50 in the functional cAMP assay",10 to 11 nM

# Reference: paper PMC10517971, “An inverse agonist of orphan receptor GPR61 acts by a G protein-competitive allosteric mechanism” (Nature Communications, 2023)
